# Experimental data reported in patent publication US9931347B2, “Pharmaceutical compound” (IOmet Pharma Ltd., priority 2013, dated 2018).
# Target: T1, TDO (A172 human glioblastoma cells) (Homo sapiens, UniProt P48775)
# T1 construct: This assay utilised cancer cells which expressed either TDO or IDO; endogenous in cells; host or cells: A172 human glioblastoma cells
# Assay: A172 Kynurenine cell based assay
# Conditions: 500 μM L-tryptophan, 48 hours, kynurenine by Erhlich's reagent
# Method: (§1) Exemplary compounds of the invention were prepared, and tested to determine their effect as TDO and/or IDO inhibitors. Two different assays were employed: 1. a cell-based assay for detecting the effect of test compounds on kynurenine production in two different cancer cell types. This assay utilised cancer cells which expressed either TDO or IDO and as such was used as a means of testing compound activity at these two enzymes in a cell-based context. 2. a TDO and IDO biochemical coupled assay which utilised recombinantly produced and purified TDO and IDO enzymes in combination with the enzyme formamidase. This coupled enzyme system allowed conversion of N-formylkynurenine produced by TDO or IDO activity to kynurenine which was then quantified by fluorescence following addition of Erhlich's Reagent The protocols for these are set out below.
# (§2) A172 (human glioblastoma) and SKOV3 (human ovarian adenocarcinoma) cells were seeded in a 96 well plate at 30,000 or 40,000 cells per well respectively in phenol red-free RPMI supplemented with 10% FCS, 2 mM L-glutamine and 500 μM L-tryptophan. IDO expression was induced in the SKOV3 cells by the addition of 500 ng/ml IFN-γ. Cells were incubated at 37° C. with or without the addition of test compound. After 48 hours, the cells were removed by centrifugation and Erhlich's reagent was added to the supernatant. The Erhlich's reagent was incubated for 5 minutes before the absorbance was read at 490 nm.
# T1 sequence (P48775 whole entry): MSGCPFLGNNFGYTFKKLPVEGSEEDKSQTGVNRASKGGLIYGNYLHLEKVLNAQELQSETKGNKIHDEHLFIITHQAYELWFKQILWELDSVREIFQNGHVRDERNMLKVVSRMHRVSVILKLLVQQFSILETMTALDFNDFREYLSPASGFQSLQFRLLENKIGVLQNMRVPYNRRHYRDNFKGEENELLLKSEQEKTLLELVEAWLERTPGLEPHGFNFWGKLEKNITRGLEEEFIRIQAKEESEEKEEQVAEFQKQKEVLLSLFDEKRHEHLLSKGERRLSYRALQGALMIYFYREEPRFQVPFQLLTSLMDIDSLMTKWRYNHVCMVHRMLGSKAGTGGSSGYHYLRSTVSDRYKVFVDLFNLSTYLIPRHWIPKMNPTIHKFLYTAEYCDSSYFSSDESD
row,SMILES,A172 Kynurenine cell based assay pIC50
1,CS(=O)(=O)N1CCC(c2c[nH]c3ccc(C#N)cc23)CC1 [Compound 177],+ (+ = pIC50 4.00-4.99)
2,CS(=O)(=O)N1CCC(c2c[nH]c3ccccc23)C(O)C1 (centres unmarked) [Compound 187],+ (+ = pIC50 4.00-4.99)
3,O=C1CN(c2c[nH]c3ccccc23)CCN1 [Compound 188],++ (++ = pIC50 5.00-5.99)
4,CC1(C)CN(c2c[nH]c3ccccc23)CCN1S(C)(=O)=O [Compound 191],++ (++ = pIC50 5.00-5.99)
5,CN1CC2CN(c3c[nH]c4ccccc34)CCN2C1=O (centres unmarked) [Compound 192],+ (+ = pIC50 4.00-4.99)
6,Fc1ccc2c(C3CCN(c4ccccn4)CC3)c[nH]c2c1 [Compound 193],++ (++ = pIC50 5.00-5.99)
7,CS(=O)(=O)N1CCC(c2c[nH]c3c(F)cccc23)CC1 [Compound 194],+ (+ = pIC50 4.00-4.99)
8,CC(=O)N1CC=C(c2c[nH]c3c(Cl)cccc23)CC1 [Compound 196],+ (+ = pIC50 4.00-4.99)
9,Cc1ccc2c(C3=CCN(S(C)(=O)=O)CC3)c[nH]c2c1 [Compound 206],++ (++ = pIC50 5.00-5.99)
10,CS(=O)(=O)N1CC=C(c2c[nH]c3ccc(C#N)cc23)CC1 [Compound 230],++ (++ = pIC50 5.00-5.99)
11,CC(=O)N1CCC(c2c[nH]c3cc(C#N)ccc23)CC1 [Compound 237],+ (+ = pIC50 4.00-4.99)
12,CN(C)CCNC(=O)N1CCC(c2c[nH]c3ccccc23)CC1 [Compound 246],+ (+ = pIC50 4.00-4.99)
13,CCNS(=O)(=O)N1CCC(c2c[nH]c3ccccc23)CC1 [Compound 258],+ (+ = pIC50 4.00-4.99)
14,O=C(c1cocn1)N1CCC(c2c[nH]c3cc(F)ccc23)CC1 [Compound 274],+ (+ = pIC50 4.00-4.99)
15,CC(C)CN1CC(C(=O)N2CCC(c3c[nH]c4cc(F)ccc34)CC2)CC1=O (centres unmarked) [Compound 275],+ (+ = pIC50 4.00-4.99)
16,CN(C)S(=O)(=O)N1CCN(c2c[nH]c3ccccc23)CC1 [Compound 297],++ (++ = pIC50 5.00-5.99)
17,CC(=O)N1CCN(c2c[nH]c3ccccc23)CC1C (centres unmarked) [Compound 298],++ (++ = pIC50 5.00-5.99)
18,O=C1NCC2CN(c3c[nH]c4ccccc34)CCN12 (centres unmarked) [Compound 307],++ (++ = pIC50 5.00-5.99)
19,CS(=O)(=O)N1CCN(c2c[nH]c3ccccc23)CC1C#N (centres unmarked) [Compound 314],++ (++ = pIC50 5.00-5.99)
20,c1ccc2c(N3CCn4ncnc4C3)c[nH]c2c1 [Compound 315],+ (+ = pIC50 4.00-4.99)
21,CS(=O)(=O)N1CCN(c2c[nH]c3ccccc23)CC1CN (centres unmarked) [Compound 318],++ (++ = pIC50 5.00-5.99)

# More lines, now with the values ahead:
row,A172 Kynurenine cell based assay pIC50,SMILES
1,++ (++ = pIC50 5.00-5.99),O=C1CCC2CN(c3c[nH]c4ccccc34)CCN12 (centres unmarked) [Compound 190]
2,++ (++ = pIC50 5.00-5.99),CC(=O)N1CCC(c2c[nH]c3cc(F)ccc23)CC1 [Compound 200]
3,++ (++ = pIC50 5.00-5.99),CC(=O)N1CC=C(c2c[nH]c3cc(F)cc(F)c23)CC1 [Compound 201]
4,+ (+ = pIC50 4.00-4.99),CC(=O)N1CCC(c2c[nH]c3cc(F)cc(F)c23)CC1 [Compound 202]
5,+ (+ = pIC50 4.00-4.99),COCCNC(=O)N1CCC(c2c[nH]c3ccccc23)CC1 [Compound 212]
6,+ (+ = pIC50 4.00-4.99),CS(=O)(=O)N1CCC(c2c[nH]c3cc(F)cc(F)c23)CC1 [Compound 216]
7,+ (+ = pIC50 4.00-4.99),COCCNS(=O)(=O)N1CCC(c2c[nH]c3ccccc23)CC1 [Compound 219]
8,+ (+ = pIC50 4.00-4.99),O=S(=O)(N1CCOCC1)N1CCC(c2c[nH]c3ccccc23)CC1 [Compound 220]
9,+ (+ = pIC50 4.00-4.99),CS(=O)(=O)N1CC=C(c2c[nH]c3cc(C(F)(F)F)ccc23)CC1 [Compound 224]
10,+ (+ = pIC50 4.00-4.99),O=C(NCCO)N1CCC(c2c[nH]c3ccccc23)CC1 [Compound 226]
11,+ (+ = pIC50 4.00-4.99),O=C(c1cnccn1)N1CCC(c2c[nH]c3cc(F)ccc23)CC1 [Compound 261]
12,+ (+ = pIC50 4.00-4.99),O=C(C1CCOC1)N1CCC(c2c[nH]c3cc(F)ccc23)CC1 (centres unmarked) [Compound 262]
13,++ (++ = pIC50 5.00-5.99),COCC(=O)N1CCC(c2c[nH]c3cc(F)ccc23)CC1 [Compound 264]
14,+ (+ = pIC50 4.00-4.99),CC(C)C(=O)N1CCC(c2c[nH]c3cc(F)ccc23)CC1 [Compound 266]
15,+ (+ = pIC50 4.00-4.99),CC(C)C(=O)N1CCC(C(=O)N2CCC(c3c[nH]c4cc(F)ccc34)CC2)CC1 [Compound 267]
16,+ (+ = pIC50 4.00-4.99),CCN1CC(C(=O)N2CCC(c3c[nH]c4cc(F)ccc34)CC2)CC1=O (centres unmarked) [Compound 268]
17,+ (+ = pIC50 4.00-4.99),O=C(c1ccno1)N1CCC(c2c[nH]c3cc(F)ccc23)CC1 [Compound 271]
18,+ (+ = pIC50 4.00-4.99),Cn1cnc(C(=O)N2CCC(c3c[nH]c4cc(F)ccc34)CC2)c1 [Compound 272]
19,++ (++ = pIC50 5.00-5.99),O=S(=O)(CC(F)(F)F)N1CCC(c2c[nH]c3cc(F)ccc23)CC1 [Compound 287]
20,+ (+ = pIC50 4.00-4.99),Fc1ccc2c(C3CCN(c4nnn[nH]4)CC3)c[nH]c2c1 [Compound 290]
21,++ (++ = pIC50 5.00-5.99),O=S(=O)(c1ccccc1)N1CCC(c2c[nH]c3cc(F)ccc23)CC1 [Compound 300]
22,++ (++ = pIC50 5.00-5.99),Fc1ccc2c(C3CCN(c4ccccc4)CC3)c[nH]c2c1 [Compound 303]
23,++ (++ = pIC50 5.00-5.99),Fc1ccc2c(C3CCN(c4cccnc4)CC3)c[nH]c2c1 [Compound 309]
24,+ (+ = pIC50 4.00-4.99),CC(=O)N1CCN(c2c[nH]c3ccccc23)CC1C#N (centres unmarked) [Compound 313]

# Target: T2, IDO (SKOV3 human ovarian adenocarcinoma cells, IFN-γ induced) (Homo sapiens, UniProt P14902)
# T2 construct: IDO expression was induced in the SKOV3 cells by the addition of 500 ng/ml IFN-γ; endogenous in cells; host or cells: SKOV3 human ovarian adenocarcinoma cells, induced with IFN-γ
# Assay: SKOV3 Kynurenine cell based assay
# Conditions: IDO induced by 500 ng/ml IFN-γ, 500 μM L-tryptophan, 48 hours
# Method: as §1
# as §2, with “supernatant.” for “supernatant. The Erhlich's reagent was incubated for 5 minutes before the absorbance was read at 490 nm.”
# T2 sequence (P14902 whole entry): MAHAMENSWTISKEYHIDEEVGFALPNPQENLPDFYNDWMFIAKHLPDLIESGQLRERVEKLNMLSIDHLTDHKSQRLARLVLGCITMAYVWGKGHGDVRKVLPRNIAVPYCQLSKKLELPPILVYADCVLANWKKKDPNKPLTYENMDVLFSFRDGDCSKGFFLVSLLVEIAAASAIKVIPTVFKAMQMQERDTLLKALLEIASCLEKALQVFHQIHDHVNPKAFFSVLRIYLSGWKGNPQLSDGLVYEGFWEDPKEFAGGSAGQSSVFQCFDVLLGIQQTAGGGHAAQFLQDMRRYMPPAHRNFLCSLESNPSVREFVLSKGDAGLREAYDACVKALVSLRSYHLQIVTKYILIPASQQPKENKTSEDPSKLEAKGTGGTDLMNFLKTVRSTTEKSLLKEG
row,SMILES,SKOV3 Kynurenine cell based assay pIC50
1,CS(=O)(=O)N1CCC(c2c[nH]c3ccc(C#N)cc23)CC1 [Compound 177],+ (+ = pIC50 4.00-4.99)
2,CS(=O)(=O)N1CCC(c2c[nH]c3ccccc23)C(O)C1 (centres unmarked) [Compound 187],+− (+− = pIC50 <4.00)
3,O=C1CN(c2c[nH]c3ccccc23)CCN1 [Compound 188],+− (+− = pIC50 <4.00)
4,CC1(C)CN(c2c[nH]c3ccccc23)CCN1S(C)(=O)=O [Compound 191],+− (+− = pIC50 <4.00)
5,CN1CC2CN(c3c[nH]c4ccccc34)CCN2C1=O (centres unmarked) [Compound 192],+− (+− = pIC50 <4.00)
6,Fc1ccc2c(C3CCN(c4ccccn4)CC3)c[nH]c2c1 [Compound 193],++ (++ = pIC50 5.00-5.99)
7,CC(=O)N1CC=C(c2c[nH]c3c(Cl)cccc23)CC1 [Compound 196],+ (+ = pIC50 4.00-4.99)
8,CCN(CC)C(=O)N1CCC(c2c[nH]c3ccccc23)CC1 [Compound 211],+ (+ = pIC50 4.00-4.99)
9,CC(=O)N1CC=C(c2c[nH]c3cc(C#N)ccc23)CC1 [Compound 214],+ (+ = pIC50 4.00-4.99)
10,CS(=O)(=O)N1CCC(c2c[nH]c3cc(OCc4ccccc4)ccc23)CC1 [Compound 222],+ (+ = pIC50 4.00-4.99)
11,CS(=O)(=O)N1CCC(c2c[nH]c3c(Cl)cccc23)CC1 [Compound 235],+ (+ = pIC50 4.00-4.99)
12,CS(=O)(=O)N1CCCN(c2c[nH]c3ccccc23)CC1 [Compound 302],+ (+ = pIC50 4.00-4.99)
13,CS(=O)(=O)N1CCC(=C2C(=O)Nc3ccc(Br)cc32)CC1 [Compound 305],+ (+ = pIC50 4.00-4.99)
14,CS(=O)(=O)N1CCC(C2C(=O)Nc3ccc(Br)cc32)CC1 (centres unmarked) [Compound 306],++ (++ = pIC50 5.00-5.99)
15,CS(=O)(=O)N1CCC(C2C(=O)Nc3ccc(C(F)(F)F)cc32)CC1 (centres unmarked) [Compound 310],+ (+ = pIC50 4.00-4.99)
16,CS(=O)(=O)N1CCC(C2C(=O)Nc3ccc(C#N)cc32)CC1 (centres unmarked) [Compound 312],+ (+ = pIC50 4.00-4.99)

# Continued, values first:
row,SKOV3 Kynurenine cell based assay pIC50,SMILES
1,+− (+− = pIC50 <4.00),O=C1CCC2CN(c3c[nH]c4ccccc34)CCN12 (centres unmarked) [Compound 190]
2,+ (+ = pIC50 4.00-4.99),CC(=O)N1CCC(c2c(C)[nH]c3ccccc23)CC1 [Compound 195]
3,+ (+ = pIC50 4.00-4.99),CC(=O)N1CCC(c2c[nH]c3cc(Cl)c(F)cc23)CC1 [Compound 242]
4,++ (++ = pIC50 5.00-5.99),CS(=O)(=O)N1CCC(C2C(=O)Nc3ccc(Cl)cc32)CC1 (centres unmarked) [Compound 294]
